# Values quoted from earlier work as cited in patent publication US20180305742A1, “USE OF ESTROGENIC COMPOUNDS TO […] BACTERIAL COMPOSITION OF VAGINAL COMMUNITIES” (University of Idaho, priority 2017, published 2018).
# Tested on: estrogen receptor
structure (smiles),measurement,setting,value
"C[C@]12CC[C@@H]3c4ccc(O)cc4CC[C@H]3[C@@H]1C[C@@H](O)[C@@H]2O [Estriol, estriol]",potency relative to estradiol,as potent as estradiol,8%
same,potency relative to estrone,as potent as estrone,14%
